Laboratory results as given in a melting point compilation (Tetko et al.; mined from patent text by program, amines drawn as free bases though some values may be those of a salt).

Row | Compound | melting point
1 | COC1CCc2oc3ccc(Br)cc3c(=O)c2C1 (stereo not drawn) | 139 to 142 °C
2 | COc1cc(Cl)cc2c1CCC2 | 38 to 40 °C
3 | O=C1N(Cc2ccncc2)Cc2cccnc2N1c1cccc(Cl)c1 | 132 to 134 °C
4 | Cc1nc(N2C[C@H](C)N(Cc3ccc(F)cc3)C2=O)sc1C(=O)NCc1ccc(F)c(F)c1 | 62 to 65 °C
5 | COc1cc(-c2cccc(C)c2)cc2oc(=O)c(C)c(C)c12 | 114 °C
6 | CC(C)=CCCOc1c(-c2ccc(S(C)(=O)=O)cc2)cnn(-c2cccc(Cl)c2)c1=O | 110 to 111 °C
7 | CCN(CC)c1cncc(C(=O)Nc2nnn[nH]2)n1 | 217 to 218 °C
8 | O=C(O)c1ccc(C(O)(C(F)(F)F)C(F)(F)F)cc1C(=O)O | 183 to 185 °C
9 | CC1(C)Oc2ccc(OC(F)(F)F)cc2[C@@H](N2Cc3cccnc3C2=O)[C@@H]1O (relative stereo) | 248 to 250 °C
10 | Cc1oc2c(C)c(C)c(NCc3ccc(F)cc3)c(C)c2c1-c1ccc(F)cc1 | 107 to 109 °C
11 | C=C(c1cc(OC)c(O)c2c(Cc3ccccc3)cccc12)C(C)(C)C(=O)O | 162 °C
12 | CC(C)(C)CC(C)(C)c1cc(Cc2cc(C(C)(C)C)cc(-n3nc4ccccc4n3)c2O)c(O)c(C(C)(C)CC(C)(C)C)c1 | 166 °C
13 | CCOC(=O)Cc1ccc(Nc2ccnc(Nc3cc(OC)c(OC)c(OC)c3)n2)cc1 | 143 to 144 °C
14 | CN(C)c1ccc(N2CCN(Cc3c[nH]c4ncccc34)CC2)cc1 | 199 to 201 °C
15 | CCOC(=O)C1=C(C)NC(N)=C(C(=O)OCCOC)C1c1cccc([N+](=O)[O-])c1 (stereo not drawn) | 174 °C
16 | CC(C)CNC(=O)c1sc(Oc2ccc3c(c2)OCO3)c2c1CCc1cnn(C)c1-2 | 155 to 157 °C
17 | Cc1cc(Nc2ccn(-c3ccccc3)n2)cc(C)c1O | 154 to 155 °C
18 | CCC(O)(C#Cc1ncn2c1CN(C)C(=O)c1c(Cl)cccc1-2)CC | 186 to 188 °C
19 | CCOC(=O)N[C@@H](C(=O)O)c1ccccc1 | 143 to 150 °C
20 | C=CCN1C(=O)N(CC=C)[C@@H](C(=O)O)[C@H]1C(=O)O | 161 to 163 °C
21 | CCCc1nn(C)c2c(=O)[nH]c(Cc3ccc4[nH]c(=O)ccc4c3)nc12 | > 300 °C
22 | COc1ccc(-c2coc3ccc(-c4nnc(SCc5cccc(C)c5)o4)cc23)cc1 | 123 to 124 °C
23 | O=c1[nH]nc2c(Br)cccn12 | 297 to 299 °C
24 | CSCC1CCN(c2cn(-c3cccnc3)nc2Cl)C1=O (stereo not drawn) | 83 to 84 °C
25 | O=C(CCCl)Nc1ccc2[nH]ncc2c1 | 158 to 160 °C

Row | Compound | melting point
26 | CC(C)[C@H]1CC[C@H](C(=O)CO)CC1 | 43 to 44 °C
27 | N#Cc1ccc(S(=O)(=O)N2CCCC2c2ccc(F)cc2)cc1 (racemic) | 147 °C
28 | CNc1nc(O)nc2c(Cl)cc(OC)c(OC)c12 | 219 to 221 °C
29 | COc1ccc(-c2[nH]nc3c2C(=O)c2c(NC(=O)NNC(=O)c4ccccc4N)cccc2-3)cc1 | 257 °C
30 | N#Cc1cc2cc(F)c(F)cc2o1 | 103 °C
31 | c1ccc(-c2ccc3c4c([nH]c3c2)CCNCC4)cc1 | 220 to 222 °C
32 | OCCC1(c2ccccc2)CCNCC1 | 120 °C
33 | O=C(Nc1cccnc1)N1CCc2ccc(Cl)cc21 | 204 to 205 °C
34 | Nc1cc(C=O)nc(Cc2ccc(F)cc2)c1F | 130 to 131 °C
35 | CC(C)(C)n1nn[nH]c1=S | 92 to 94 °C
36 | Cn1c(C(F)(F)F)cc(=O)n(-c2ccc3snc(CP(=O)(O)O)c3c2)c1=O | > 230 °C
37 | Cc1cccc(NC(=O)NC2C(=O)Nc3ccccc3NC2=O)c1 | > 300 °C
38 | CC(=O)c1ccc(NS(=O)(=O)N(C)C)cc1 | 129 to 130 °C
39 | CCOC(=O)c1cc(=O)c(-c2ccc(OC)cc2)co1 | 121 to 123 °C
40 | COc1cc(C)c(C(O)C#CC(F)(F)F)c(C)c1C (stereo not drawn) | 126 to 130 °C
41 | Cc1cc(=O)c2cc(NC(=O)C(=O)O)ccc2s1 | 238 to 240 °C
42 | CCn1cc(C(=O)O)c(=O)c2cc(F)c(N3CCN(S(=O)(=O)c4ccc(Cl)cc4)CC3)c(F)c21 | 231 to 233 °C
43 | COc1nc2cc(Cl)c(Cl)c(NS(C)(=O)=O)c2nc1OC | 225 to 227 °C
44 | Cc1cc(C)c(Nc2nc(C)ncc2S(=O)(=O)c2ccc(C#N)cc2)c(C)c1 | 258 to 260 °C
45 | O=C(NCCc1cccc2ccc(OC(c3ccccc3)c3ccccc3)cc12)C1CC1 | 109 to 111 °C
46 | c1cc(-c2cccc3ncoc23)c2ocnc2c1 | 226 to 228 °C
47 | Nc1nc(-c2ccc(Cl)cc2)cc(C2CCN(C(=O)c3ccccc3)CC2)n1 | 129 to 130 °C
48 | CONC(=O)C(Cl)=Cc1cc(-n2c(=O)cc(C(F)(F)F)n(C)c2=O)ccc1Cl | 136 to 141 °C
49 | C=CCn1cc(Br)cnc1=O | 142 to 143 °C
50 | O=C(c1c(Cl)cccc1[N+](=O)[O-])n1ccnc1-c1ccccc1 | 147 to 148 °C

Row | Compound | melting point
51 | COCOc1ccc(Cl)cc1-c1cc(-c2cccc(N)c2)c(C#N)c(NC(=O)c2ccccc2)n1 | 174 to 175 °C
52 | Cc1cc(C(C)c2ccccc2)c(O)c(-n2nc3ccc(Cl)cc3n2)c1 (stereo not drawn) | 113 to 115 °C
53 | CC(C)(C)c1cc(SCc2nc3cccnc3[nH]2)cc(C(C)(C)C)c1O | 241 to 242 °C
54 | O=[N+]([O-])c1ccc(C2OCc3cc(Br)ccc3O2)cc1 (stereo not drawn) | 163 to 164 °C
55 | CCCCC(CC)COC(=O)c1cccc(S(N)(=O)=O)c1 (stereo not drawn) | 40 to 42 °C
56 | CCCc1nc2ccccc2n1Cc1ccc(-c2ccccc2-c2nnn[nH]2)nc1 | 240 to 241 °C
57 | COc1ccc(N(CCN2CCC(C(=O)c3ccc(F)cc3)CC2)C(=O)c2ccc(N)cc2)c(OC)c1 | 135 to 138 °C
58 | COCc1nc2cnc3ccccc3c2n1CC(C)(C)O | 145 to 148 °C
59 | Nc1ncnc2sc(Cc3ccccc3)c(-c3ccc(NS(=O)(=O)c4ccccc4)cc3)c12 | 100 to 105 °C
60 | Sc1nnc(-c2ccc3c(c2)CCO3)o1 | 219 to 221 °C
61 | Cc1ccc(S(=O)(=O)OCC2COc3ccc4nc(C)oc4c3O2)cc1 (stereo not drawn) | 123 °C
62 | CC(C)(C)OC(=O)Cn1c(C(=O)O)cc2ccccc21 | 156 to 157 °C
63 | CC(C)(O)c1cccc(-c2ccc3nc(-c4ccc(Cl)cc4)c(F)n3c2)c1 | 174 to 175 °C
64 | COC(=O)[C@@H]1C[C@H](C(=O)OC(C)(C)C)N(C(=O)CNC(=O)Nc2cccc(C)c2)[C@@H]1c1ccccc1 (racemic) | 130 °C
65 | Cc1cc(NC(=O)C(=O)N2C(C)COCC2C)cc(C)c1S(=O)(=O)C[N+](=O)[O-] (stereo not drawn) | 140 to 141 °C
66 | Clc1ccc(-c2cc(C3=CCN(Cc4c[nH]c5ncccc45)CC3)on2)cc1 | 245 to 247 °C
67 | O=C1NC(=O)C2(C=Cc3c2csc3Cl)N1 (stereo not drawn) | 224 to 225 °C
68 | O=[N+]([O-])c1cccc(Oc2cc(Oc3cccc([N+](=O)[O-])c3)cc(C(F)(F)F)c2)c1 | 118 °C
69 | O=Cc1cccnc1SCc1ccccc1 | 71.5 to 73 °C
70 | CCn1nc(-c2cccs2)c(C(=O)OCCOC(C)=O)c(Nc2cncc3ccccc23)c1=O | 155 to 157 °C
71 | COc1ccc(S(=O)(=O)Oc2ccc(N3CCNC3=O)cc2)cc1 | 126 to 127 °C
72 | CCOC(=O)CNC(=O)CCCOc1ccc2nc3[nH]c(=O)[nH]c3cc2c1 | 274 to 276 °C
73 | COC1(c2cccc(S(=O)(=O)c3ccc4c(c3)oc(=O)n4C)c2)CCOCC1 | 163 to 165 °C
74 | CC(C)(C)OC(=O)N1CCc2cc(-c3ccc(Cl)cc3)ccc2C1 | 88.5 to 90.5 °C
75 | CCCc1c(OCCOCCOCCOCCOc2ccc3ccc(OCC(=O)O)cc3c2C(C)=O)ccc(C(C)=O)c1O | 57 to 58 °C

Row | Compound | melting point
76 | CCCn1ccc2c(c1=O)C(c1ccccc1)C(C(=O)OCC)=C(C)N2 (stereo not drawn) | 215 to 217 °C
77 | COC(=O)CC[C@H](NC(=O)c1ccc(C#Cn2cnc3nc(NC(=O)C(C)(C)C)cc-3c2O)cc1)C(=O)OC | 280 to 285 °C
78 | CCOC(=O)C(C(=O)N(C)C)=C(OCc1ccccc1)c1ccc(Cl)cc1Cl | 115 °C
79 | CCC1C(=O)c2cc(OC)c(Cl)c(Cl)c2C1=O (stereo not drawn) | 153 to 154 °C
80 | CN(C)CCCN(C)C(=O)NC(Cc1c[nH]c2ccccc12)C(=O)CCc1cc(C(F)(F)F)cc(C(F)(F)F)c1 (stereo not drawn) | 135 to 137 °C
81 | C[C@@H](n1ncn(-c2ccc(OC(F)(F)F)cc2)c1=O)[C@@]1(c2ccc(F)cc2F)CO1 | 103 to 106 °C
82 | COC(=O)c1cc(-c2ccncc2)ccc1C(=O)N1CCN(C(=O)OC(C)(C)C)CC1 | 144 to 146 °C
83 | CC(C)(C)S(=O)(=O)N[C@H]1CC[C@H](C(=O)O)CC1 | 201 to 203 °C
84 | COc1ccc(Nc2cc(C)nc(SCC#N)n2)cc1 | 128 to 131 °C
85 | N#CN1C(=O)[C@H]2CC=CC[C@H]2C1=O | 136 to 138 °C
86 | Cn1nc(C(F)F)c(CS(=O)(=O)C2=NOC(C)(C)C2)c1Cl | 78 to 79 °C
87 | CC(C)(C)OC(=O)N1CCC(C)(c2nc(-c3ccncc3)c(-c3ccc(F)cc3)[nH]2)CC1 | 157 to 160 °C
88 | Cc1ccc(Nc2c3ccccc3nc3c(C)cccc23)cc1NC(=O)Oc1ccc(N(CCCl)CCCl)cc1 | 154 to 156 °C
89 | COc1cc(CC(=O)O)ccc1SCc1sc(-c2ccc(C(F)(F)F)cc2)nc1C | 181 to 182 °C
90 | CCC1Oc2ccc(-c3nc4ccccn4c3C)cc2NC1=O (stereo not drawn) | 216 to 217 °C
91 | CCCCc1oc2ccccc2c1CCc1ccc(OS(=O)(=O)c2ccc(C(=O)O)c(OC(C)=O)c2)cc1 | 54 to 57 °C
92 | Cc1ccccc1CNc1cccc(-c2ccnc3c(C(=O)c4cccs4)cnn23)c1 | 177 to 179 °C
93 | NC(C=Cc1cccs1)=NO | 92 °C
94 | CNS(=O)(=O)c1cc(C(=O)OC)cc(N2CCCC2)c1Oc1ccccc1 | 138 to 139 °C
95 | NS(=O)(=O)C(Br)(Br)S(=O)(=O)c1ccc(Br)cc1 | 192 °C
96 | CN(Cc1cc2c3c(c1)c(=O)c(C(=O)NCc1ccc(Cl)cc1)cn3CC(=O)N2C)C[C@@H](O)c1cnccn1 | 97 to 98 °C
97 | CN1CCN(c2nc3ccccc3n2CCOc2ccccc2)CC1 | 152 to 154 °C
98 | COc1ccc(Cl)cc1C(=O)NCCc1ccc(CCCCCCCCCC(=O)O)cc1 | 97 to 100 °C
